Among the data in patent US20120101093A1, “SUBSTITUTED IMIDAZO[1,2-A]PYRIDINE DERIVATIVES, PHARMACEUTICAL COMPOSITIONS, AND METHODS OF USE AS BETA-SECRETASE INHIBITORS” (HIGH POINT PHARMACEUTICALS, LLC, priority 2009, published 2012) are IC50 values, retold here.

For this assay, the target named is T1, BACE-1 enzyme (Homo sapiens, UniProt P56817).
T1 construct: purchased R & D Systems 931AS
Briefly: BACE Fluorescence Resonance Energy Transfer (FRET) Assay. The settings on record: pH 4-4.5, 30 min pre-incubation, about 1.5 hours reaction. It is filed as biochemical. How it is done:
BACE Fluorescence Resonance Energy Transfer (FRET) Assay
In the following assay, the proteolytic activity of BACE is measured by observing cleavage of a fluorescent group from a peptide substrate containing a rhodamine fluorescent donor and a quenching acceptor.
The inhibitory activity of compounds of Formula (I) may be compared to a statine derived control inhibitor STA200 (MP Biomedical Cat. #STA-200). The cleavage reaction occurs when a BACE-1 substrate (Invitrogen, Cat. #P2986) was added to a reaction mixture containing BACE-1 enzyme (R & D Systems, Cat. #931AS) and allowed to proceed for about 1.5 hours. Fluorescence, used as a marker of BACE activity, is monitored using 540 nm excitation and 585 nm emission wavelengths (Envision, Perkin Elmer).
A typical assay reaction contains BACE-1 enzyme—in assay buffer (50 mM sodium acetate, pH 4-4.5, 0.01% CHAPS (3-[(3-Cholamidopropyl)dimethylammonio]-1-propanesulfonate), 0.0125% TritonX-100, 0.006% EDTA) which is pre-incubated for 30 minutes with test compound in 7.5% DMSO. The reaction is initiated with the addition of BACE-1 substrate in assay buffer and allowed to proceed for about 1.5 hours at room temperature. Assays are conducted in black 384-well microtiter plates and scanned at room temperature using 540 nm excitation and 585 nm emission wavelengths.
In some instances, the percent inhibition at a given concentration is reported instead of the IC50.

T1 sequence (P56817 46-457 limits assumed): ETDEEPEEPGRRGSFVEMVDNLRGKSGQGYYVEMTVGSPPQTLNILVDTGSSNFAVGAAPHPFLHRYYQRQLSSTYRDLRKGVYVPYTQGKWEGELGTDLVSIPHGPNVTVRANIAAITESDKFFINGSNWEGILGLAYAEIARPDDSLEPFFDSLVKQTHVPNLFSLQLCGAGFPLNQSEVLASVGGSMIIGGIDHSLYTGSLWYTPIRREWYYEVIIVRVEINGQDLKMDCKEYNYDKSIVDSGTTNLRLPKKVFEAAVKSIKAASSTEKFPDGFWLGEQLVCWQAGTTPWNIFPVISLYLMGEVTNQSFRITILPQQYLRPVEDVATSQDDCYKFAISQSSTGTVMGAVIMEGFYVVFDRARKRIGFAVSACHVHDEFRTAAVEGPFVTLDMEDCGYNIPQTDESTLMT

A word on the IC50: it is the concentration that inhibits the measured activity by half. A low value points to greater potency. Compound `Cc1cccn2cc(C(=O)Nc3nc4cc(-c5cc(F)cc(Cl)c5)ccc4[nH]3)nc12` [Example 57, 8-Methyl-imidazo[1,2-a]pyridine-2-carboxylic acid [5-(3-chloro-5-fluoro-phenyl)-1H-benzoimidazol-2-yl]-amide] had a concentration for half-maximal inhibition (IC50) of 0.4 µM. Under `Cc1ccc2nc(C(=O)Nc3nc4cc(OCc5ccc(C(F)(F)F)cc5)ccc4[nH]3)cn2c1` [Example 60, 6-Methyl-imidazo[1,2-a]pyridine-2-carboxylic acid [5-(4-trifluoromethyl-benzyloxy)-1H-benzoimidazol-2-yl]-amide] stands 0.45 µM; under `Cc1cccc2nc(C(=O)Nc3nc4cc(-c5cc(Cl)cc(C(F)(F)F)c5)ccc4[nH]3)cn12` [Example 66, 5-Methyl-imidazo[1,2-a]pyridine-2-carboxylic acid [6-(3-chloro-5-trifluoromethyl-phenyl)-1H-benzoimidazol-2-yl]-amide], 0.28 µM.

For `Cc1cccc2nc(C(=O)Nc3nc4cc(-c5cc(C(F)(F)F)ccc5Cl)ccc4[nH]3)cn12` [Example 67, 5-Methyl-imidazo[1,2-a]pyridine-2-carboxylic acid [5-(2-chloro-5-trifluoromethyl-phenyl)-1H-benzoimidazol-2-yl]-amide], 0.53 µM corresponded to half-maximal inhibition (IC50).

In turn, `Cc1cccc2nc(C(=O)Nc3nc4cc(-c5ccc(S(C)(=O)=O)cc5)ccc4[nH]3)cn12` [Example 73, 5-Methyl-imidazo[1,2-a]pyridine-2-carboxylic acid [5-(4-methanesulfonyl-phenyl)-1H-benzoimidazol-2-yl]-amide] registered an IC50 of 1.24 µM. Against the preceding compound, the IC50 is about 2.3-fold higher. As to `Cc1cccc2nc(C(=O)Nc3nc4cc(-c5cccc(S(C)(=O)=O)c5)ccc4[nH]3)cn12` [Example 74, 5-Methyl-imidazo[1,2-a]pyridine-2-carboxylic acid [5-(3-methanesulfonyl-phenyl)-1H-benzoimidazol-2-yl]-amide], the IC50 worked out at 1.72 µM. Consider `Cc1cccn2cc(C(=O)Nc3nc4cc(-c5cccc(S(C)(=O)=O)c5)ccc4[nH]3)nc12` [Example 75, 8-Methyl-imidazo[1,2-a]pyridine-2-carboxylic acid [5-(3-methanesulfonyl-phenyl)-1H-benzoimidazol-2-yl]-amide], for which the IC50 turned out to be 2.07 µM. The compound `CCOc1ccc(-c2ccc3[nH]c(NC(=O)c4cn5cccc(C)c5n4)nc3c2)cc1F` [Example 81, 8-Methyl-imidazo[1,2-a]pyridine-2-carboxylic acid [5-(4-ethoxy-3-fluoro-phenyl)-1H-benzoimidazol-2-yl]-amide] yielded an IC50 of 1.72 µM.

For `Cc1cccc2nc(C(=O)Nc3nc4cc(C5CCCCC5)ccc4[nH]3)cn12` [Example 85, 5-Methyl-imidazo[1,2-a]pyridine-2-carboxylic acid (5-cyclohexyl-1H-benzoimidazol-2-yl)-amide], 1.93 µM corresponded to half-maximal inhibition (IC50). For `Cc1cccn2cc(C(=O)Nc3nc4cc(-c5cc(Cl)cc(C(F)(F)F)c5)ccc4[nH]3)nc12` [Example 86, 8-Methyl-imidazo[1,2-a]pyridine-2-carboxylic acid [5-(3-chloro-5-trifluoromethyl-phenyl)-1H-benzoimidazol-2-yl]-amide] the value was 0.28 µM; for `Cc1cccn2cc(C(=O)Nc3nc4cc(-c5cc(Cl)ccc5Cl)ccc4[nH]3)nc12` [Example 88, 8-Methyl-imidazo[1,2-a]pyridine-2-carboxylic acid [5-(2,5-dichloro-phenyl)-1H-benzoimidazol-2-yl]-amide], 0.29 µM.

With `COc1ccc(-c2ccc3[nH]c(NC(=O)c4cn5cccc(C)c5n4)nc3c2)cc1C(F)(F)F` [Example 89, 8-Methyl-imidazo[1,2-a]pyridine-2-carboxylic acid [5-(4-methoxy-3-trifluoromethyl-phenyl)-1H-benzoimidazol-2-yl]-amide], half-maximal inhibition (IC50) was put at 2.28 µM. For `Cc1cccc2nc(C(=O)Nc3nc4cc(-c5ccc(OC(C)C)c(Cl)c5)ccc4[nH]3)cn12` [Example 90, 5-Methyl-imidazo[1,2-a]pyridine-2-carboxylic acid [5-(3-chloro-4-isopropoxy-phenyl)-1H-benzoimidazol-2-yl]-amide] the value was 0.49 µM. Consider `Cc1cccc2nc(C(=O)Nc3nc4cc(-c5ccc(C(F)(F)F)cc5Cl)ccc4[nH]3)cn12` [Example 91, 5-Methyl-imidazo[1,2-a]pyridine-2-carboxylic acid [5-(2-chloro-4-trifluoromethyl-phenyl)-1H-benzoimidazol-2-yl]-amide], for which the half-maximal inhibitory concentration (IC50) stood at 0.44 µM. Turning to `Cc1cccn2cc(C(=O)Nc3nc4cc(-c5ccc(C(F)(F)F)c(Cl)c5)ccc4[nH]3)nc12` [Example 93, 8-Methyl-imidazo[1,2-a]pyridine-2-carboxylic acid [5-(3-chloro-4-trifluoromethyl-phenyl)-1H-benzoimidazol-2-yl]-amide], the IC50 is 1.78 µM. This IC50 is about 4-fold higher than that of the compound before.

For the compound `Cc1cccc2nc(C(=O)Nc3nc4cc(-c5cc(F)cc(C(F)(F)F)c5)ccc4[nH]3)cn12` [Example 94, 5-Methyl-imidazo[1,2-a]pyridine-2-carboxylic acid [5-(3-fluoro-5-trifluoromethyl-phenyl)-1H-benzoimidazol-2-yl]-amide], half-maximal inhibition (IC50) required 0.42 µM.

In turn, `Cc1cccn2cc(C(=O)Nc3nc4cc(-c5cc(F)cc(C(F)(F)F)c5)ccc4[nH]3)nc12` [Example 95, 8-Methyl-imidazo[1,2-a]pyridine-2-carboxylic acid [5-(3-fluoro-5-trifluoromethyl-phenyl)-1H-benzoimidazol-2-yl]-amide] had an IC50 of 0.32 µM. For `Cc1cccc2nc(C(=O)Nc3nc4cc(-c5cnc(N(C)C)nc5)ccc4[nH]3)cn12` [Example 96, 5-Methyl-imidazo[1,2-a]pyridine-2-carboxylic acid [5-(2-dimethylamino-pyrimidin-5-yl)-1H-benzoimidazol-2-yl]-amide] the value was 1.17 µM; for `Cc1cccc2nc(C(=O)Nc3nc4cc(-c5ccc(OC(F)(F)F)cc5)ccc4[nH]3)cn12` [Example 98, 5-Methyl-imidazo[1,2-a]pyridine-2-carboxylic acid [5-(4-trifluoromethoxy-phenyl)-1H-benzoimidazol-2-yl]-amide], 0.44 µM; for `Cc1cccc2nc(C(=O)Nc3nc4cc(-c5ccc(C6CCCCC6)cc5)ccc4[nH]3)cn12` [Example 101, 5-Methyl-imidazo[1,2-a]pyridine-2-carboxylic acid [5-(4-cyclohexyl-phenyl)-1H-benzoimidazol-2-yl]-amide], 0.3 µM. Under `Cc1cccc2nc(C(=O)Nc3nc4cc(-c5ccc(O)c(F)c5)ccc4[nH]3)cn12` [Example 103, 5-Methyl-imidazo[1,2-a]pyridine-2-carboxylic acid [5-(3-fluoro-4-hydroxy-phenyl)-1H-benzoimidazol-2-yl]-amide] stands 1.74 µM; under `CCc1cccc2nc(C(=O)Nc3nc4cc(-c5cccc(C(F)(F)F)c5)ccc4[nH]3)cn12` [Example 104, 5-Ethyl-imidazo[1,2-a]pyridine-2-carboxylic acid [5-(3-trifluoromethyl-phenyl)-1H-benzoimidazol-2-yl]-amide], 0.31 µM.

In the case of `COc1cc(F)ccc1-c1ccc2[nH]c(NC(=O)c3cn4c(C)cccc4n3)nc2c1` [Example 105, 5-Methyl-imidazo[1,2-a]pyridine-2-carboxylic acid [5-(4-fluoro-2-methoxy-phenyl)-1H-benzoimidazol-2-yl]-amide], the IC50 came out at 1.79 µM.

In turn, `CCOc1ccc(-c2ccc3[nH]c(NC(=O)c4cn5c(C)cccc5n4)nc3c2)c(Cl)c1` [Example 108, 5-Methyl-imidazo[1,2-a]pyridine-2-carboxylic acid [5-(2-chloro-4-ethoxy-phenyl)-1H-benzoimidazol-2-yl]-amide] returned an IC50 of 0.39 µM.

Take `O=C(Nc1nc2cc(-c3cccc(C(F)(F)F)c3)ccc2[nH]1)c1cn2c(Br)cccc2n1` [Example 111, 5-Bromo-imidazo[1,2-a]pyridine-2-carboxylic acid [5-(3-trifluoromethyl-phenyl)-1H-benzoimidazol-2-yl]-amide]: the IC50 stood at 0.22 µM. `O=C(Nc1nc2cc(-c3cc(F)cc(Cl)c3)ccc2[nH]1)c1cn2cc(F)ccc2n1` [Example 113, 6-Fluoro-imidazo[1,2-a]pyridine-2-carboxylic acid [5-(3-chloro-5-fluoro-phenyl)-1H-benzoimidazol-2-yl]-amide] returned an IC50 of 0.46 µM. Compound `CCOC(=O)c1ccn2cc(C(=O)Nc3nc4cc(-c5cc(F)cc(Cl)c5)ccc4[nH]3)nc2c1` [Example 114, 2-[5-(3-Chloro-5-fluoro-phenyl)-1H-benzoimidazol-2-ylcarbamoyl]-imidazo[1,2-a]pyridine-7-carboxylic acid ethyl ester] yielded an IC50 of 0.29 µM. For the compound `O=C(Nc1nc2cc(-c3cc(F)cc(Cl)c3)ccc2[nH]1)c1cn2ccccc2n1` [Example 116, Imidazo[1,2-a]pyridine-2-carboxylic acid [5-(3-chloro-5-fluoro-phenyl)-1H-benzoimidazol-2-yl]-amide], the IC50 was found to be 0.38 µM. The IC50 values of the last two compounds are within 1.5-fold of each other. For `Cc1cccc2nc(C(=O)Nc3nc4cc(C5CCCC5)ccc4[nH]3)cn12` [Example 118, 5-Methyl-imidazo[1,2-a]pyridine-2-carboxylic acid (5-cyclopentyl-1H-benzoimidazol-2-yl)-amide] the value was 0.99 µM.
